Results: patent US20060030585A1, “Tricyclic delta-opioid modulators” (priority 2004, published 2006)
Several values for one entry are separate records, joined by “and”; a condition that tells them apart may be missing. Equal values may be shown once. Read-outs that look alike come from different tables or passages of the source.

Columns and labels:
mu opioid receptor = mu opioid receptor (Rattus norvegicus, UniProt P33535); experiment: Rat brain mu opioid receptor binding assay ([3H]DAMGO); details: Rat mu opioid receptor binding constant, rat forebrain membranes, ~0.8 nM [3H]DAMGO
Protocol: Rat Brain Mu Opioid Receptor Binding Assay
(§1) Procedure: Male, Sprague Dawley rats (150-250 g, VAF, Charles River, Kingston, N.Y.) were killed by CO2, and their brains removed and placed immediately in ice cold Tris HCl buffer (50 mM, pH 7.4). The forebrains were separated from the remainder of the brain by a coronal transection, beginning dorsally at the colliculi and passing ventrally through the midbrain-pontine junction. After dissection, the forebrains were homogenized in Tris buffer in a Teflon®-glass homogenizer. The homogenate was diluted to a concentration of 1 g of forebrain tissue per 80 mL Tris and centrifuged at 39,000×g for 10 min. The pellet was resuspended in the same volume of Tris buffer containing 5 mM MgCl2 with several brief pulses from a Polytron homogenizer. This particulate preparation was used for the delta opioid binding assays.
(§2) Analysis: The data from the scintillation counter were used to calculate either the % inhibition compared to control binding (when only a single concentration of test compound was evaluated) or a Ki value (when a range of concentrations tested). Percent inhibition was calculated as: [(total dpm-test compound dpm)/(total dpm-nonspecific dpm)]*100. Kd and Ki values were calculated using GraphPad PRISM data analysis program.

delta opioid receptor = delta opioid receptor (Rattus norvegicus, UniProt P33533); experiment: Rat brain delta opioid receptor binding assay ([3H]DPDPE); details: Rat delta opioid receptor binding constant, rat forebrain membranes, ~4 nM [3H]DPDPE
Protocol: Rat Brain Delta Opioid Receptor Binding Assay
as §1, with “assays. Following incubation with the delta selective peptide ligand ˜4 nM [^3H]DPDPE at 25° C. for 2.5 h in a 96-well plate with total volume of 1 mL, the plate contents were filtered through Wallac filtermat B sheets on a Tomtec 96-well harvester. The filters were rinsed three times with 2 mL of 10 mM HEPES (pH 7.4), and dried in a 650 W microwave oven for 1.75 min twice. To each sample area 2×50 μL of Betaplate Scint scintillation fluid (LKB) was added and the radioactivity quantified on a LKB (Wallac) 1205 BetaPlate liquid scintillation counter.” for “assays.”
as §2, with “concentrations was” for “concentrations”

[1] = target: T1, delta opioid receptor (NG108-15 cell membranes) (Mus musculus, UniProt P32300); experiment: [35S]GTPγS binding assay in NG108-15 cell membranes (delta opioid); assay type: biochemical; details: agonist-stimulated [35S]GTPγS binding
T1 construct: NG108-15 cell membranes were purchased from Applied Cell Sciences (Rockville, Md.); host or cells: NG108-15 cell membranes (purchased)
Protocol: [^35S]GTPγS Binding Assay in NG108-15 Cell Membranes (delta opioid)
Methods: NG108-15 cell membranes were purchased from Applied Cell Sciences (Rockville, Md.). 8 mg/mL of membrane protein suspended in 10 mM TRIS-HCl pH 7.2, 2 mM EDTA, 10% sucrose. Membranes were maintained at 4-8° C. A 1 mL volume of membranes was added into 10 mL cold binding assay buffer. The assay buffer contained 50 mM Tris, pH 7.6, 5 mM MgCl2, 100 mM NaCl, 1 mM DTT and 1 mM EGTA. The membrane suspension was homogenized twice with a Polytron, and centrifuged at 3000 rpm for 10 min. The supernatant was then centrifuged at 18,000 rpm for 20 min. Ten mL assay buffer was added into the pellet containing tube. The pellet and buffer were mixed with a Polytron.
Incubation procedure: The pellet membranes (75 μg/mL) were preincubated with SPA (10 mg/mL) at 25° C. for 45 min in the assay buffer. […] GTPγS in the same Tris buffer containing 100 μM GDP in total volume of 200 μL. Increasing concentrations of receptor agonists were used to stimulate [35S]-GTPγS binding. The basal binding was tested in the absence of agonists and non-specific binding was tested in the presence of 10 μM unlabeled GTPγS. The data were analyzed on a Packard Top Count.
% of Basal=(stimulated−non specific)*100/(basal−non specific). EC50 value values were calculated using GraphPad Prism.

[2] = DOR GTPγS EC50, NG108-15 cell membranes
[3] = NG108-15 cell membranes, read-out: DOR GTPγS EC50

T1 sequence (P32300 whole entry): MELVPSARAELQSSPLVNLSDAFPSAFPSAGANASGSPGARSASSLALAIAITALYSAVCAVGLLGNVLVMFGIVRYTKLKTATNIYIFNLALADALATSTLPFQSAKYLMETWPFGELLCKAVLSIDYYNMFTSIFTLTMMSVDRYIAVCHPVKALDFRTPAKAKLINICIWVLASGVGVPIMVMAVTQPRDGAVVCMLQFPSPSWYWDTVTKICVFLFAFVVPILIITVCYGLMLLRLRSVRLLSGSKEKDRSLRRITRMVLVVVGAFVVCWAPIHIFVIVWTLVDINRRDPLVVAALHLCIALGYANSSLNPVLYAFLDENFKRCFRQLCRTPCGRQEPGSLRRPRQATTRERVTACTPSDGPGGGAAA
Sequence of delta opioid receptor (P33533 whole entry): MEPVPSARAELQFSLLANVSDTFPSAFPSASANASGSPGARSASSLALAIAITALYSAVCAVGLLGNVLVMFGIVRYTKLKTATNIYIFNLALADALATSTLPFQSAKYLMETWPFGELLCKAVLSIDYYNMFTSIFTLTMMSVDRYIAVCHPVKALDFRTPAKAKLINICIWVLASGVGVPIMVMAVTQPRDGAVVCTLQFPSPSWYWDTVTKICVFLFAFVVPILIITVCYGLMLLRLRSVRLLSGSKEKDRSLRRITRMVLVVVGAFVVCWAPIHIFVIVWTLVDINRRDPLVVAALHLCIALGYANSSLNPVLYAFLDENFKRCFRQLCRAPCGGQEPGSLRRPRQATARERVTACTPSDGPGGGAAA
Sequence of mu opioid receptor (P33535 whole entry): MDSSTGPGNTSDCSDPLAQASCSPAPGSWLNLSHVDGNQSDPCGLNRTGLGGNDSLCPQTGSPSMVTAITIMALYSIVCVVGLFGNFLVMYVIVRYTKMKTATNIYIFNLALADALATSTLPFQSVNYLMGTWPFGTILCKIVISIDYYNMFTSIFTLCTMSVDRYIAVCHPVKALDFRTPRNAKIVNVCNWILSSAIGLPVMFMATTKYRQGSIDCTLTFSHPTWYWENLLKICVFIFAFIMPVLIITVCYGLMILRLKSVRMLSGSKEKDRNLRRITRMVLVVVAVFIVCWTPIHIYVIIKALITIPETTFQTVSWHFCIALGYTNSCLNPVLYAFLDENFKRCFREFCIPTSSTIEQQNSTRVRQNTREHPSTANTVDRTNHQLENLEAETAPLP

Compound	Ki (mu opioid receptor; MOR Ki) [nM]	Ki (delta opioid receptor; DOR Ki) [nM]	EC50 [1, 2]	Ki (mu opioid receptor; read-out: MOR Ki) [nM]	Ki (delta opioid receptor; read-out: DOR Ki) [nM]	EC50 [1, 3] [nM]
O=c1[nH]c(-c2ccc3c(c2)Oc2ccccc2C3=C2CC3CCC(C2)N3)ns1 [Cpd 8, 3-[9-(8-Aza-bicyclo[3.2.1]oct-3-ylidene)-9H-xanthen-3-yl]-4H-[1,2,4]thiadiazol-5-one]	1080	10.8	359 nM			
S=c1[nH]c(-c2ccc3c(c2)Oc2ccccc2C3=C2CC3CCC(C2)N3)no1 [Cpd 93]				3740	0.37	631
O=c1[nH]c(-c2ccc3c(c2)Oc2ccccc2C3=C2CC3CCC(C2)N3)no1 [Cpd 91]				> 10000	0.76	72.2
O=C(c1ccc2c(c1)Oc1ccccc1C2=C1CC2CCC(C1)N2)N1CCCC1 [Cpd 6, [9-(8-Aza-bicyclo[3.2.1]oct-3-ylidene)-9H-xanthen-3-yl]-pyrrolidin-1-yl-methanone]	1400	7.4	59 nM			
O=c1[nH]c(-c2ccc3c(c2)Oc2ccccc2C3=C2CC3CCC(C2)N3)no1 [Cpd 4, 3-[9-(8-Aza-bicyclo[3.2.1]oct-3-ylidene)-9H-xanthen-3-yl]-4H-[1,2,4]oxadiazol-5-one]	768	6.78	128 nM			
c1ccc2c(c1)Sc1cc(-c3nnn[nH]3)ccc1C2=C1C[C@H]2CC[C@@H](C1)N2 (single isomer, unassigned) [Cpd 103, (1SR,5RS)-3-[3-(1H-tetrazol-5-yl)-thioxanthen-9-ylidene]-8-aza-bicyclo[3.2.1]octane]	329	10.1	49.6 nM			
S=c1[nH]c(-c2ccc3c(c2)Oc2ccccc2C3=C2CC3CCC(C2)N3)no1 [Cpd 5, 3-[9-(8-Aza-bicyclo[3.2.1]oct-3-ylidene)-9H-xanthen-3-yl]-4H-[1,2,4]oxadiazole-5-thione]	1020	6.89	104 nM			
c1ccc2c(c1)Oc1cc(-c3nnn[nH]3)ccc1C2=C1CC2CCC(C1)N2 [Cpd 1, 3-[3-(1H-Tetrazol-5-ly)-xanthen-9-ylidene]-8-aza-bicyclo[3.2.1]octane]	637	1.99	189 nM and 70.3 nM			
O=c1[nH]c(-c2ccc3c(c2)Oc2ccccc2C3=C2CC3CCC(C2)N3)no1 [Cpd 92]				502	0.07	102
S=c1[nH]c(-c2ccc3c(c2)Oc2ccccc2C3=C2CC3CCC(C2)N3)no1 [Cpd 94]				219	0.04	126
O=c1[nH]c(-c2ccc3c(c2)Oc2ccccc2C3=C2CC3CCC(C2)N3)ns1 [Cpd 101]				465	7	281
Cc1cccc(C)c1OCC(C)NC(=O)c1ccc2c(c1)Oc1ccccc1C2=C1CC2CCC(C1)N2 (stereo not drawn) [Cpd 13]		23.6		2920		641
O=C(NC(CO)Cc1ccccc1)c1ccc2c(c1)Oc1ccccc1C2=C1CC2CCC(C1)N2 (single isomer, unassigned) [Cpd 15]	414	27.5	79 nM			
COc1cccc2c1Oc1cc(-c3ccncc3)ccc1C2=C1CC2CCC(C1)N2 [Cpd 107]				597	106	
O=C(NCCc1ccccc1)c1ccc2c(c1)Oc1ccccc1C2=C1CC2CCC(C1)N2 [Cpd 19]	438	45				
COC(=O)c1ccc2c(c1)Oc1ccccc1C2=C1CC2CCC(C1)N2 [Cpd 73]				6340	1010	
CN(C)CCN(C)C(=O)c1ccc2c(c1)Oc1ccccc1C2=C1CC2CCC(C1)N2 [Cpd 56]	28500	4930				
COc1cccc2c1Oc1cc(Br)ccc1C2=C1CC2CCC(C1)N2 [Cpd 79]	4780	192				

Compound	Ki (mu opioid receptor; MOR Ki) [nM]	Ki (delta opioid receptor; DOR Ki) [nM]	EC50 [1, 2]	Ki (mu opioid receptor; read-out: MOR Ki) [nM]	Ki (delta opioid receptor; read-out: DOR Ki) [nM]	EC50 [1, 3] [nM]
COC(=O)c1ccc2c(c1)Sc1ccccc1C2=C1CC2CCC(C1)N2 [Cpd 76]				4740	370	
CC(C)C[C@H](CO)NC(=O)c1ccc2c(c1)Oc1ccccc1C2=C1CC2CCC(C1)N2 [Cpd 67]	1570	360				
O=C(c1ccc2c(c1)Oc1ccccc1C2=C1CC2CCC(C1)N2)N(CC(F)(F)F)CC(F)(F)F [Cpd 48]				2060	939	
CC(C)(CO)NC(=O)c1ccc2c(c1)Oc1ccccc1C2=C1CC2CCC(C1)N2 [Cpd 97]				1900	266	
O=C(c1ccc2c(c1)Oc1ccccc1C2=C1CC2CCC(C1)N2)N1CCC(O)C1 (single isomer, unassigned) [Cpd 70]	1660	63				
c1ccc2c(c1)Oc1cc(C3=NCCN3)ccc1C2=C1CC2CCC(C1)N2 [Cpd 33]	315	224				
CN(C(=O)c1ccc2c(c1)Oc1ccccc1C2=C1CC2CCC(C1)N2)c1ccc(F)cc1 [Cpd 66]	935	93				
CCN(CC)C(=N)c1ccc2c(c1)Oc1ccccc1C2=C1CC2CCC(C1)N2 [Cpd 9, 9-(8-Aza-bicyclo[3.2.1]oct-3-ylidene)-N,N-diethyl-9H-xanthene-3-carboxamidine]	3540	14				
c1ccc2c(c1)Oc1cc(C3=NCCCN3)ccc1C2=C1CC2CCC(C1)N2 [Cpd 41]	875	464				
COc1cccc2c1Oc1cc(-c3noc(=O)[nH]3)ccc1C2=C1CC2CCC(C1)N2 [Cpd 132, 3-[9-(8-Aza-bicyclo[3.2.1]oct-3-ylidene)-5-methoxy-9H-xanthen-3-yl]-4H-[1,2,4]oxadiazol-5-one]	254	0.32				
N=C(c1ccc2c(c1)Oc1ccccc1C2=C1CC2CCC(C1)N2)N1CCOCC1 [Cpd 50]	14900	1760				
CC(=O)Nc1ccccc1-c1ccc2c(c1)Sc1ccccc1C2=C1CC2CCC(C1)N2Cc1ccccn1 [Cpd 121]		3.7		137		
O=C(c1ccc2c(c1)Oc1ccccc1C2=C1CC2CCC(C1)N2)N1CCC(O)C1 (single isomer, unassigned) [Cpd 127]	907	191				
c1ccc2c(c1)Oc1cc(-c3nnn[nH]3)ccc1C2=C1CC2CCC(C1)N2 [Cpd 80]						226
Nc1ccc(-c2ccc3c(c2)Oc2ccccc2C3=C2CC3CCC(C2)N3)cc1 [Cpd 42]	1310	490				
CS(=O)(=O)c1ccc(-c2ccc3c(c2)Oc2ccccc2C3=C2CC3CCC(C2)N3)cc1 [Cpd 53]	3290	3140				
N#Cc1ccc2c(c1)Sc1ccccc1C2=C1CC2CCC(C1)N2 [Cpd 85, 9-(8-Aza-bicyclo[3.2.1]oct-3-ylidene)-9H-thioxanthene-3-carbonitrile]	2310	629				
O=C(NC1CCCC1)c1ccc2c(c1)Oc1ccccc1C2=C1CC2CCC(C1)N2 [Cpd 45]	3100	673				
